According to ChEMBL document CHEMBL1130335, “Comparative molecular field analysis of a series of paclitaxel analogues” (J Med Chem, 1997):

Experiment: Measured activity expressed as ID50 (analogue)/ID50 (paclitaxel), where ID50 is the concentration of compound leading to 50% inhibition of the rate microtubule disassembly
Assay type: functional

| Compound | Activity |
| --- | --- |
| CC(=O)O[C@@]12COC1C[C@H](O)[C@@]1(C)C(=O)[C@H](O)C3=C(C)[C@@H](OC(=O)[C@@H](NC(=O)c4ccccc4)[C@@H](O)c4ccccc4)C[C@@](O)([C@@H](OC(=O)c4ccccc4)[C@@H]12)C3(C)C (stereo partly specified) | 170 |
| CC(=O)O[C@@]12COC1C[C@H](O)[C@@]1(C)C(=O)[C@H](O)C3=C(C)[C@@H](OC(=O)[C@H](O)Cc4ccccc4)C[C@@](O)([C@@H](OC(=O)c4ccccc4)[C@@H]12)C3(C)C (stereo partly specified) | 4.5 |
| CC(=O)O[C@H]1C(=O)[C@]2(C)[C@@H](O)CC3OC[C@@]3(OC(C)=O)[C@H]2[C@H](OC(=O)c2ccccc2)[C@]2(O)C[C@H](OC(=O)[C@H](O)[C@H](NC(=O)CC(C)(C)C)c3ccccc3)C(C)=C1C2(C)C (stereo partly specified) | 0.7 |
| CC(=O)O[C@@H]1C2=C(C)[C@@H](OC(=O)[C@H](O)[C@@H](NC(=O)OC(C)(C)C)C(O)CO)C[C@@](O)([C@@H](OC(=O)c3ccccc3)[C@H]3[C@@](C)([C@@H](O)CC4OC[C@]43OC(C)=O)[C@H]1O)C2(C)C (stereo partly specified) | 2.71 |
| CC(=O)O[C@H]1C(=O)[C@]2(C)[C@@H](O)CC3OC[C@@]3(OC(C)=O)[C@H]2[C@H](OC(=O)c2ccccc2)[C@]2(O)C[C@H](OC(=O)[C@H](O)[C@H](NC(=O)c3ccc(C(F)(F)F)cc3)c3ccccc3)C(C)=C1C2(C)C (stereo partly specified) | 6 |
| CC(=O)O[C@H]1C(=O)[C@]2(C)[C@@H](O)CC3OC[C@@]3(OC(C)=O)[C@H]2[C@H](OC(=O)c2ccccc2)[C@]2(O)C[C@H](OC(=O)C(O)C(C)O)C(C)=C1C2(C)C (stereo partly specified) | 60 |
| CC(=O)O[C@H]1C(=O)[C@]2(C)[C@@H](O)CC3OC[C@@]3(OC(C)=O)[C@H]2[C@H](OC(=O)C2CCCCC2)[C@]2(O)C[C@H](OC(=O)[C@H](O)[C@@H](NC(=O)C3CCCCC3)C3CCCCC3)C(C)=C1C2(C)C (stereo partly specified) | 0.47 |
| C/C=C/C(=O)O[C@H]1C[C@@]2(O)[C@@H](OC(=O)c3ccccc3)[C@H]3[C@](C)(C(=O)[C@H](OC(C)=O)C(=C1C)C2(C)C)[C@@H](O)CC1OC[C@]13OC(C)=O (stereo partly specified) | 100 |
| CC[C@H](NC(=O)OC(C)(C)C)[C@@H](O)C(=O)O[C@H]1C[C@@]2(O)[C@@H](OC(=O)c3ccccc3)[C@H]3[C@@](C)([C@@H](O)CC4OC[C@]43OC(C)=O)[C@@H](O)[C@H](OC(C)=O)C(=C1C)C2(C)C (stereo partly specified) | 0.61 |
| CC(=O)O[C@H]1C(=O)[C@]2(C)[C@@H](O)CC3OC[C@@]3(OC(C)=O)[C@H]2[C@H](OC(=O)c2ccccc2)[C@]2(O)C[C@H](OC(=O)[C@@H](O)[C@@H](NC(=O)c3ccccc3)c3ccccc3)C(C)=C1C2(C)C (stereo partly specified) | 4.5 |
| COC(=O)[C@@H](C(=O)O[C@H]1C[C@@]2(O)[C@@H](OC(=O)c3ccccc3)[C@H]3[C@](C)(C(=O)[C@H](O)C(=C1C)C2(C)C)[C@@H](O)CC1OC[C@]13OC(C)=O)[C@H](NC(=O)OC(C)(C)C)c1ccccc1 (stereo partly specified) | 10 |
| CC(=O)O[C@@H]1C2=C(C)[C@@H](OC(=O)[C@H](O)[C@@H](NC(=O)c3ccccc3)c3ccccc3)C[C@@](O)([C@@H](OC(=O)c3ccccc3)[C@H]3[C@@](C)([C@@H](O)CC4OC[C@]43OC(C)=O)[C@H]1O)C2(C)C (stereo partly specified) | 0.86 |
| CC(=O)O[C@@]12COC1C[C@H](O)[C@@]1(C)C(=O)[C@H](O)C3=C(C)[C@@H](OC(=O)CCc4ccccc4)C[C@@](O)([C@@H](OC(=O)c4ccccc4)[C@@H]12)C3(C)C (stereo partly specified) | 17 |
| COc1ccc(C(=O)N[C@H](c2ccccc2)[C@@H](O)C(=O)O[C@H]2C[C@@]3(O)[C@@H](OC(=O)c4ccccc4)[C@H]4[C@](C)(C(=O)[C@H](OC(C)=O)C(=C2C)C3(C)C)[C@@H](O)CC2OC[C@]24OC(C)=O)cc1 (stereo partly specified) | 0.5 |
| CC(=O)O[C@H]1C(=O)[C@]2(C)[C@@H](O)CC3OC[C@@]3(OC(C)=O)[C@H]2[C@H](OC(=O)c2ccccc2)[C@]2(O)C[C@H](OC(=O)[C@@H](NC(=O)c3ccccc3)[C@@H](O)c3ccccc3)C(C)=C1C2(C)C (stereo partly specified) | 110 |
| CCCCOC(=O)N[C@H](c1ccccc1)[C@@H](O)C(=O)O[C@H]1C[C@@]2(O)[C@@H](OC(=O)c3ccccc3)[C@H]3[C@](C)(C(=O)[C@H](OC(C)=O)C(=C1C)C2(C)C)[C@@H](O)CC1OC[C@]13OC(C)=O (stereo partly specified) | 0.8 |
| CC(=O)O[C@H]1C(=O)[C@]2(C)[C@@H](O)CC3OC[C@@]3(OC(C)=O)[C@H]2[C@H](OC(=O)c2ccccc2)[C@]2(O)C[C@H](OC(=O)[C@H](O)[C@H](NC(=O)c3ccccc3)c3ccco3)C(C)=C1C2(C)C (stereo partly specified) | 0.9 |
| CC(=O)O[C@H]1C(=O)[C@]2(C)[C@@H](O)CC3OC[C@@]3(OC(C)=O)[C@H]2[C@H](OC(=O)c2ccccc2)[C@]2(O)C[C@H](OC(=O)[C@H](O)[C@H](N)c3ccccc3)C(C)=C1C2(C)C (stereo partly specified) | 44 |

| Compound | Activity |
| --- | --- |
| CC(=O)O[C@@]12COC1C[C@H](O)[C@@]1(C)C(=O)[C@H](O)C3=C(C)[C@@H](OC(=O)[C@H](O)[C@H](NC(=O)C4CCCC4)C(C)(C)C)C[C@@](O)([C@@H](OC(=O)c4ccccc4)[C@@H]12)C3(C)C (stereo partly specified) | 1.5 |
| CC(=O)O[C@H]1C(=O)[C@]2(C)[C@@H](O)CC3OC[C@@]3(OC(C)=O)[C@H]2[C@H](OC(=O)c2ccccc2)[C@]2(O)C[C@H](OC(=O)[C@H](O)[C@H](NC(=O)C(C)=O)c3ccccc3)C(C)=C1C2(C)C (stereo partly specified) | 3.5 |
| COC(=O)[C@@H](C(=O)O[C@H]1C[C@@]2(O)[C@@H](OC(=O)c3ccccc3)[C@H]3[C@](C)(C(=O)[C@H](OC(C)=O)C(=C1C)C2(C)C)[C@@H](O)CC1OC[C@]13OC(C)=O)[C@H](NC(=O)c1ccccc1)c1ccccc1 (stereo partly specified) | 30 |
| CC(=O)O[C@H]1C(=O)[C@]2(C)[C@@H](O)CC3OC[C@@]3(OC(C)=O)[C@H]2[C@H](OC(=O)c2ccccc2)[C@]2(O)C[C@H](OC(=O)[C@H](O)[C@H](NC(=O)c3ccccc3)c3cccc4ccccc34)C(C)=C1C2(C)C (stereo partly specified) | 7.1 |
| CC(=O)O[C@@H]1C2=C(C)[C@@H](OC(=O)[C@H](O)[C@@H](NC(=O)NC(C)(C)C)c3ccccc3)C[C@@](O)([C@@H](OC(=O)c3ccccc3)[C@H]3[C@@](C)([C@@H](O)CC4OC[C@]43OC(C)=O)[C@H]1O)C2(C)C (stereo partly specified) | 1.06 |
| CC(=O)O[C@@]12COC1C[C@H](O)[C@@]1(C)C(=O)[C@H](O)C3=C(C)[C@@H](OC(=O)[C@H](O)[C@@H](/C=C/c4ccccc4)NC(=O)OC(C)(C)C)C[C@@](O)([C@@H](OC(=O)c4ccccc4)[C@@H]12)C3(C)C (stereo partly specified) | 1.45 |
| COc1ccc([C@@H](NC(=O)c2ccccc2)[C@@H](O)C(=O)O[C@H]2C[C@@]3(O)[C@@H](OC(=O)c4ccccc4)[C@H]4[C@](C)(C(=O)[C@H](OC(C)=O)C(=C2C)C3(C)C)[C@@H](O)CC2OC[C@]24OC(C)=O)cc1 (stereo partly specified) | 0.5 |
| CC(=O)O[C@@]12COC1C[C@H](O)[C@@]1(C)C(=O)[C@H](O)C3=C(C)[C@@H](OC(=O)[C@H](O)[C@H](NC(=O)N(C)c4ccc[nH]4)C(C)(C)C)C[C@@](O)([C@@H](OC(=O)c4ccccc4)[C@@H]12)C3(C)C (stereo partly specified) | 0.96 |
| CC(=O)O[C@H]1C(=O)[C@]2(C)[C@@H](O)CC3OC[C@@]3(OC(C)=O)[C@H]2[C@H](OC(=O)C2CCCCC2)[C@]2(O)C[C@H](OC(=O)[C@H](O)[C@@H](NC(=O)c3ccccc3)c3ccccc3)C(C)=C1C2(C)C (stereo partly specified) | 1.7 |
| CC(=O)N[C@@H](c1ccccc1)[C@@H](O)C(=O)O[C@H]1C[C@@]2(O)[C@@H](OC(=O)c3ccccc3)[C@H]3[C@@](C)([C@@H](O)CC4OC[C@]43OC(C)=O)[C@@H](O)[C@H](OC(C)=O)C(=C1C)C2(C)C (stereo partly specified) | 3.17 |
| CC(=O)O[C@H]1C(=O)[C@]2(C)[C@@H](O)CC3OC[C@@]3(OC(C)=O)[C@H]2[C@H](OC(=O)c2ccccc2)[C@]2(O)C[C@H](OC(=O)[C@H](O)[C@H](NC(=O)c3ccccc3)c3ccccn3)C(C)=C1C2(C)C (stereo partly specified) | 0.7 |
| CC(=O)O[C@@]12COC1C[C@H](O)[C@@]1(C)C(=O)[C@H](O)C3=C(C)[C@@H](OC(=O)[C@H](O)[C@H](NC(=O)c4cccs4)C(C)(C)C)C[C@@](O)([C@@H](OC(=O)c4ccccc4)[C@@H]12)C3(C)C (stereo partly specified) | 0.42 |
| CC(=O)O[C@@]12COC1C[C@H](O)[C@@]1(C)C(=O)[C@H](O)C3=C(C)[C@@H](OC(=O)[C@H](O)[C@@H](CC(C)(C)C)NC(=O)OC(C)(C)C)C[C@@](O)([C@@H](OC(=O)c4ccccc4)[C@@H]12)C3(C)C (stereo partly specified) | 1.45 |
| CC(=O)O[C@H]1C(=O)[C@]2(C)[C@@H](O)CC3OC[C@@]3(OC(C)=O)[C@H]2[C@H](OC(=O)C2CCCCC2)[C@]2(O)C[C@H](OC(=O)[C@H](O)[C@@H](NC(=O)OC(C)(C)C)c3ccccc3)C(C)=C1C2(C)C (stereo partly specified) | 0.67 |
| CC(=O)O[C@@]12COC1C[C@H](O)[C@@]1(C)C(=O)[C@H](O)C3=C(C)[C@@H](OC(=O)[C@H](O)[C@@H](NC(=O)OC(C)(C)C)c4ccccc4)[C@@H]4OC(C)(C)O[C@]4([C@@H](OC(=O)c4ccccc4)[C@@H]12)C3(C)C (stereo partly specified) | 3 |
| CC(=O)O[C@@]12COC1C[C@H](O)[C@@]1(C)C(=O)[C@H](O)C3=C(C)[C@@H](OC(=O)[C@H](NC(=O)c4ccccc4)[C@H](O)c4ccccc4)C[C@@](O)([C@@H](OC(=O)c4ccccc4)[C@@H]12)C3(C)C (stereo partly specified) | 10 |
| CC(=O)O[C@H]1C(=O)[C@]2(C)[C@@H](O)CC3OC[C@@]3(OC(C)=O)[C@H]2[C@H](OC(=O)c2ccccc2)[C@]2(O)C[C@H](OC(=O)[C@H](NC(=O)OC(C)(C)C)[C@H](O)c3ccccc3)C(C)=C1C2(C)C (stereo partly specified) | 10 |
| CC(=O)O[C@H]1C(=O)[C@]2(C)[C@@H](O)CC3OC[C@@]3(OC(C)=O)[C@H]2[C@H](OC(=O)c2ccccc2)[C@]2(O)C[C@H](OC(=O)[C@H](O)[C@@H](NC(=O)c3ccccc3)C3CCCCC3)C(C)=C1C2(C)C (stereo partly specified) | 0.29 |
